# Results from paper PMC6084503, “Pyrrolo[3,2-c]pyridine derivatives with potential inhibitory effect against FMS kinase: in vitro biological studies” (Journal of Enzyme Inhibition and Medicinal Chemistry, 2018).
# pIC50: −log10 of the molar value.
# Assays:
# [1] = system: HS 27 fibroblasts; test: Antiproliferative screening against HS 27 fibroblasts; format: cell-based; details: HS-27 Fibroblasts (normal cells); concentration producing 50% inhibition
# Procedure: It was conducted following the previously reported protocol.
# Due to over-expression of FMS kinase in certain types of tumours such as ovarian, prostate, and breast[5–7] cancers, we decided to test the antiproliferative activity of compound 1r against a panel of six ovarian, two prostate, and five breast cancer cell lines. It was also tested against HS 27 fibroblasts in order to investigate the selectivity indexes. The results were compared with those of KIST101029 as a reference standard.
# [2] = biological target: T1, IKKβ (Homo sapiens, UniProt O14920); test: Kinase HotSpot 40-kinase panel; format: biochemical; details: single-dose concentration of 1 μM
# T1 construct: purchased Reaction Biology Corp. (Kinase HotSpot)
# Procedure: (§1) Reaction Biology Corp. Kinase HotSpot^SM service [http://www.reactionbiology.com] was utilised for screening of the target compounds as per the protocol reported in the literature.
# (§2) Compound 1r was tested against a panel of 40 kinases including FMS. […] Its inhibition percentages against FLT3 (D835Y) and c-MET kinases were 42% and 40%, respectively. So its IC50 values against both of them will be in micromolar scale. […] The inhibition percentages exerted by compound 1r against the other 37 tested kinases were less than 28%.
# [3] = biological target: T2, ABL1 (Homo sapiens, UniProt P00519); test: Kinase HotSpot 40-kinase panel; format: biochemical; details: single-dose concentration of 1 μM
# T2 construct: purchased Reaction Biology Corp. (Kinase HotSpot)
# Procedure: as §1, §2
# [4] = biological target: T3, Aurora A (Homo sapiens, UniProt O14965); test: Kinase HotSpot 40-kinase panel; format: biochemical; details: single-dose concentration of 1 μM
# T3 construct: purchased Reaction Biology Corp. (Kinase HotSpot)
# Procedure: as §1, §2
# [5] = biological target: T4, PDK1 (Homo sapiens, UniProt O15530); test: Kinase HotSpot 40-kinase panel; format: biochemical; details: single-dose concentration of 1 μM
# T4 construct: purchased Reaction Biology Corp. (Kinase HotSpot)
# Procedure: as §1, §2
# [6] = biological target: T5, PLK1 (Homo sapiens, UniProt P53350); test: Kinase HotSpot 40-kinase panel; format: biochemical; details: single-dose concentration of 1 μM
# T5 construct: purchased Reaction Biology Corp. (Kinase HotSpot)
# Procedure: as §1, §2
# [7] = biological target: T6, TEC (activated) (Homo sapiens, UniProt P42680); test: Kinase HotSpot 40-kinase panel; format: biochemical; details: single-dose concentration of 1 μM
# T6 construct: purchased Reaction Biology Corp. (Kinase HotSpot)
# T6 sequence (P42680 whole entry): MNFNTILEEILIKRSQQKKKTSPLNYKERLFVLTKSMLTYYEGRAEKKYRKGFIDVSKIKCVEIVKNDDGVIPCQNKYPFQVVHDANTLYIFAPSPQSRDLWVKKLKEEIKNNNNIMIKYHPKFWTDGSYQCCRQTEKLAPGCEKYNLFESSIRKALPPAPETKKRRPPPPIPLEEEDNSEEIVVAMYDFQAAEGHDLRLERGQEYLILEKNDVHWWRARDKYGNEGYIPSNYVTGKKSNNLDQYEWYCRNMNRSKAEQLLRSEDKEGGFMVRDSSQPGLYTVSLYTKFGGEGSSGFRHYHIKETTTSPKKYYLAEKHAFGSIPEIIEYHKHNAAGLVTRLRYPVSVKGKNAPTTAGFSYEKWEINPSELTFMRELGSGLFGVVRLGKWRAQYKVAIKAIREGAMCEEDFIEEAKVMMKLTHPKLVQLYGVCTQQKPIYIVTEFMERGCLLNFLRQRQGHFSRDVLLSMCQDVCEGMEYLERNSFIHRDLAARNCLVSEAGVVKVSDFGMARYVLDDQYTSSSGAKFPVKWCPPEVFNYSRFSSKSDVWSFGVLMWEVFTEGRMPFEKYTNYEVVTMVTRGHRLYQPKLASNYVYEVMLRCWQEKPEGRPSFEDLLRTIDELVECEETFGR
# Procedure: as §1, §2
# [8] = biological target: T7, CDK2/cyclinE (Homo sapiens, UniProt P24941); test: Kinase HotSpot 40-kinase panel; format: biochemical; details: single-dose concentration of 1 μM
# T7 construct: purchased Reaction Biology Corp. (Kinase HotSpot)
# Procedure: as §1, §2
# [9] = biological target: T8, JNK1α1 (Homo sapiens, UniProt P45983); test: Kinase HotSpot 40-kinase panel; format: biochemical; details: single-dose concentration of 1 μM
# T8 construct: purchased Reaction Biology Corp. (Kinase HotSpot)
# Procedure: as §1, §2
# [10] = biological target: T9, FGFR1 (Homo sapiens, UniProt P11362); test: Kinase HotSpot 40-kinase panel; format: biochemical; details: single-dose concentration of 1 μM
# T9 construct: purchased Reaction Biology Corp. (Kinase HotSpot)
# Procedure: as §1, §2
# [11] = biological target: T10, CaMKI (Homo sapiens, UniProt Q14012); test: Kinase HotSpot 40-kinase panel; format: biochemical; details: single-dose concentration of 1 μM
# T10 construct: purchased Reaction Biology Corp. (Kinase HotSpot)
# T10 sequence (Q14012 whole entry): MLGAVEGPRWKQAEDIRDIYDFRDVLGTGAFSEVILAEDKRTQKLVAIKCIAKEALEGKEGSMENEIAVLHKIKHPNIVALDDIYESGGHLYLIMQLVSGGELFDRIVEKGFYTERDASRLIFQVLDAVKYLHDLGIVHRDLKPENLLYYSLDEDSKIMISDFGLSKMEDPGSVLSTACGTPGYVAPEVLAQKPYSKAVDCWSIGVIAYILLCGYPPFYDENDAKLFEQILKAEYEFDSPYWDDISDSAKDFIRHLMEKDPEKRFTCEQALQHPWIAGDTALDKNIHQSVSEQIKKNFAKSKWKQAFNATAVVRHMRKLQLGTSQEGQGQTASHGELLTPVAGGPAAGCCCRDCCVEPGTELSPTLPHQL
# Procedure: as §1, §2
# [12] = biological target: T11, ROS/ROS1 (Homo sapiens, UniProt P08922); test: Kinase HotSpot 40-kinase panel; format: biochemical; details: single-dose concentration of 1 μM
# T11 construct: purchased Reaction Biology Corp. (Kinase HotSpot)
# Procedure: as §1, §2
# [13] = biological target: T12, HIPK2 (Homo sapiens, UniProt Q9H2X6); test: Kinase HotSpot 40-kinase panel; format: biochemical; details: single-dose concentration of 1 μM
# T12 construct: purchased Reaction Biology Corp. (Kinase HotSpot)
# Procedure: as §1, §2
# [14] = biological target: T13, SYK (Homo sapiens, UniProt P43405); test: Kinase HotSpot 40-kinase panel; format: biochemical; details: single-dose concentration of 1 μM
# T13 construct: purchased Reaction Biology Corp. (Kinase HotSpot)
# Procedure: as §1, §2
# [15] = biological target: T14, FYN (Homo sapiens, UniProt P06241); test: Kinase HotSpot 40-kinase panel; format: biochemical; details: single-dose concentration of 1 μM
# T14 construct: purchased Reaction Biology Corp. (Kinase HotSpot)
# Procedure: as §1, §2
# [16] = biological target: T15, CHK1 (Homo sapiens, UniProt O14757); test: Kinase HotSpot 40-kinase panel; format: biochemical; details: single-dose concentration of 1 μM
# T15 construct: purchased Reaction Biology Corp. (Kinase HotSpot)
# Procedure: as §1, §2
# [17] = biological target: T16, LCK (Homo sapiens, UniProt P06239); test: Kinase HotSpot 40-kinase panel; format: biochemical; details: single-dose concentration of 1 μM
# T16 construct: purchased Reaction Biology Corp. (Kinase HotSpot)
# Procedure: as §1, §2
# [18] = biological target: T17, FLT3 (D835Y) (Homo sapiens, UniProt P36888, D835Y); test: Kinase HotSpot 40-kinase panel; format: biochemical; details: single-dose concentration of 1 μM
# T17 construct: purchased Reaction Biology Corp. (Kinase HotSpot)
# Procedure: as §1, §2
# [19] = biological target: T18, P70S6K (Homo sapiens, UniProt P23443); test: Kinase HotSpot 40-kinase panel; format: biochemical; details: single-dose concentration of 1 μM
# T18 construct: purchased Reaction Biology Corp. (Kinase HotSpot)
# T18 sequence (P23443 whole entry): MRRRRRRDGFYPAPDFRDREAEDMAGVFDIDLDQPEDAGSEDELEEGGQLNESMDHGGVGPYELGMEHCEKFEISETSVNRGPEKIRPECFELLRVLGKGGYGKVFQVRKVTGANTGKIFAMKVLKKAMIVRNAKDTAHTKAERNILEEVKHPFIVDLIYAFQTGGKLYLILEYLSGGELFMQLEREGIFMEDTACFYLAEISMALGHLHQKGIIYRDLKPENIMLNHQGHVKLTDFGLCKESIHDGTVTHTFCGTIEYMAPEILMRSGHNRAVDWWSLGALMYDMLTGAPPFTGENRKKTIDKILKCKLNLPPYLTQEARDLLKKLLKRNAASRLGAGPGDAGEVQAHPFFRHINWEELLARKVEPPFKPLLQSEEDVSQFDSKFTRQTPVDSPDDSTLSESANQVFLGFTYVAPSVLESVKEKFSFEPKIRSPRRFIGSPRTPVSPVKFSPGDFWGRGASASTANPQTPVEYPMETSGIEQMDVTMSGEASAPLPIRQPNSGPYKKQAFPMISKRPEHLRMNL
# Procedure: as §1, §2
# [20] = biological target: T19, c-SRC (Homo sapiens, UniProt P12931); test: Kinase HotSpot 40-kinase panel; format: biochemical; details: single-dose concentration of 1 μM
# T19 construct: purchased Reaction Biology Corp. (Kinase HotSpot)
# Procedure: as §1, §2
# [21] = biological target: T20, EPHA1 (Homo sapiens, UniProt P21709); test: Kinase HotSpot 40-kinase panel; format: biochemical; details: single-dose concentration of 1 μM
# T20 construct: purchased Reaction Biology Corp. (Kinase HotSpot)
# Procedure: as §1, §2
# [22] = biological target: T21, SAPK2a (Homo sapiens, UniProt Q16539); test: Kinase HotSpot 40-kinase panel; format: biochemical; details: single-dose concentration of 1 μM
# T21 construct: purchased Reaction Biology Corp. (Kinase HotSpot)
# Procedure: as §1, §2
# [23] = biological target: T22, PAK2 (Homo sapiens, UniProt Q13177); test: Kinase HotSpot 40-kinase panel; format: biochemical; details: single-dose concentration of 1 μM
# T22 construct: purchased Reaction Biology Corp. (Kinase HotSpot)
# T22 sequence (Q13177 whole entry): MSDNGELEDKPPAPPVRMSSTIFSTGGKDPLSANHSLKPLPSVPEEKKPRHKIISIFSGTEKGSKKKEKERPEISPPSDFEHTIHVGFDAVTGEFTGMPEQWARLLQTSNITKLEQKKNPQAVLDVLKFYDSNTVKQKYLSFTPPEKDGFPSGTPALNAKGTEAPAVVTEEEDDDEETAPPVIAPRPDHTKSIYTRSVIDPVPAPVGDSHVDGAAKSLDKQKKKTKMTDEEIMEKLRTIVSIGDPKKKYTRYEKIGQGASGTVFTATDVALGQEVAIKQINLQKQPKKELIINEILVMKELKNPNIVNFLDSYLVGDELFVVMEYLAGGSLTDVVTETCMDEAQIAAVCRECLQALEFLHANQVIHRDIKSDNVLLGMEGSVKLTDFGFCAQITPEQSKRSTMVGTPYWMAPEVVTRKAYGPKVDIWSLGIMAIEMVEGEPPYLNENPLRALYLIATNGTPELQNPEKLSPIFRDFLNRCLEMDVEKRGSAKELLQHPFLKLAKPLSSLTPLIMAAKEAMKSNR
# Procedure: as §1, §2
# [24] = biological target: T23, MEK1 (Homo sapiens, UniProt Q02750); test: Kinase HotSpot 40-kinase panel; format: biochemical; details: single-dose concentration of 1 μM
# T23 construct: purchased Reaction Biology Corp. (Kinase HotSpot)
# Procedure: as §1, §2
# [25] = biological target: T24, BTK (Homo sapiens, UniProt Q06187); test: Kinase HotSpot 40-kinase panel; format: biochemical; details: single-dose concentration of 1 μM
# T24 construct: purchased Reaction Biology Corp. (Kinase HotSpot)
# Procedure: as §1, §2
# [26] = biological target: T25, EGFR (T790M) (Homo sapiens, UniProt P00533, T790M); test: Kinase HotSpot 40-kinase panel; format: biochemical; details: single-dose concentration of 1 μM
# T25 construct: purchased Reaction Biology Corp. (Kinase HotSpot)
# T25 sequence (P00533 25-1210 T790M): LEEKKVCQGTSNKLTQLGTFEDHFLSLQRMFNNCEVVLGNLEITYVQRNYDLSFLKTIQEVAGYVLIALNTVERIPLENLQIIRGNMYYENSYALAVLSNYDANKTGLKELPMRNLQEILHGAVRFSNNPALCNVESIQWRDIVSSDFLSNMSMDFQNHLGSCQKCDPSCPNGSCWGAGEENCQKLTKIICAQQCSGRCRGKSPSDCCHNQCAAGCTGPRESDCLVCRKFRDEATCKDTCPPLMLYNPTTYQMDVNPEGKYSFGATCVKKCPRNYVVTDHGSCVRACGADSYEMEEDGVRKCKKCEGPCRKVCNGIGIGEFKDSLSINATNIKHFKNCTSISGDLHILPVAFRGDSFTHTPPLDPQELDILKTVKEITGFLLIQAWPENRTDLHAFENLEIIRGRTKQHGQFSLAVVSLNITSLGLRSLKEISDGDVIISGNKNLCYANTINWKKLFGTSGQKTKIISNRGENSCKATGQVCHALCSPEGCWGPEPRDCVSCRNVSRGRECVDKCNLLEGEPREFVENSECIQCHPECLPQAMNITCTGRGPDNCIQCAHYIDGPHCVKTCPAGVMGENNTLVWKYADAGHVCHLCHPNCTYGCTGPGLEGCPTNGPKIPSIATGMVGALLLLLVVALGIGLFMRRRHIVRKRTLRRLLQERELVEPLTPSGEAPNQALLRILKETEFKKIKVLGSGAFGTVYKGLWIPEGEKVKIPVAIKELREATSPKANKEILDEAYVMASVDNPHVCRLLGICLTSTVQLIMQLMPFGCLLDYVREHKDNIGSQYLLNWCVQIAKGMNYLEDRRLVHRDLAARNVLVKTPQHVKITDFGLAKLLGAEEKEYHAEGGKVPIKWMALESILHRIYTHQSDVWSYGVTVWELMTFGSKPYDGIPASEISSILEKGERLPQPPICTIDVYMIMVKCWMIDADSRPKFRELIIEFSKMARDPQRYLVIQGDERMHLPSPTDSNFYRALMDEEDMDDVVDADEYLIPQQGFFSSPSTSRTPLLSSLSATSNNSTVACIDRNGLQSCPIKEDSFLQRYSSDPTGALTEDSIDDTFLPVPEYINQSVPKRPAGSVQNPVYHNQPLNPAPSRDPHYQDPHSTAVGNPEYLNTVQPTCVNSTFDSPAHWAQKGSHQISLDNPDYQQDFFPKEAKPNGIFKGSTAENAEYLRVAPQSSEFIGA
# Procedure: as §1, §2
# [27] = biological target: T26, c-MET (Homo sapiens, UniProt P08581); test: Kinase HotSpot 40-kinase panel; format: biochemical; details: single-dose concentration of 1 μM
# T26 construct: purchased Reaction Biology Corp. (Kinase HotSpot)
# Procedure: as §1, §2
# [28] = biological target: T27, IGF-1R (Homo sapiens, UniProt P08069); test: Kinase HotSpot 40-kinase panel; format: biochemical; details: single-dose concentration of 1 μM
# T27 construct: purchased Reaction Biology Corp. (Kinase HotSpot)
# Procedure: as §1, §2
# [29] = biological target: T28, RSK1 (Homo sapiens, UniProt Q15418); test: Kinase HotSpot 40-kinase panel; format: biochemical; details: single-dose concentration of 1 μM
# T28 construct: purchased Reaction Biology Corp. (Kinase HotSpot)
# T28 sequence (Q15418 whole entry): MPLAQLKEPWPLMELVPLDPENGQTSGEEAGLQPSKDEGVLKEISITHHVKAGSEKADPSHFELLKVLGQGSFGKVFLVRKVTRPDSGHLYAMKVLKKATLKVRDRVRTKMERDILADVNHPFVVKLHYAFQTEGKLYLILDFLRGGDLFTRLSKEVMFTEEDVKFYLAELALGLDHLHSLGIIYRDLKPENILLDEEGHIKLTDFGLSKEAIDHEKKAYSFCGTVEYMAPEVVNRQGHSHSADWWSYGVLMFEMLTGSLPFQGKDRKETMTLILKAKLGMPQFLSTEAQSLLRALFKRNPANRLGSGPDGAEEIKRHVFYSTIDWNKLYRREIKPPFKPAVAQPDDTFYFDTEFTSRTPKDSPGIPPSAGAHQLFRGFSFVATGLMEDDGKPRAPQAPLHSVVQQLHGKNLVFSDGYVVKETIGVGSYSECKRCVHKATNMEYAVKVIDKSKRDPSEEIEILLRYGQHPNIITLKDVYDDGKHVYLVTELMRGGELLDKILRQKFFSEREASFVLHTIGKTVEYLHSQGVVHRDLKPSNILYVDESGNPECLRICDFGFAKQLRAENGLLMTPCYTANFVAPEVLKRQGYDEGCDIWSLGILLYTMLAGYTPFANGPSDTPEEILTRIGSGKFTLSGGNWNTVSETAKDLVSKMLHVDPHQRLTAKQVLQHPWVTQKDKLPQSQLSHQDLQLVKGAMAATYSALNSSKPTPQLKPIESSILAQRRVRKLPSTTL
# Procedure: as §1, §2
# [30] = biological target: T29, KDR (Homo sapiens, UniProt P35968); test: Kinase HotSpot 40-kinase panel; format: biochemical; details: single-dose concentration of 1 μM
# T29 construct: purchased Reaction Biology Corp. (Kinase HotSpot)
# Procedure: as §1, §2
# [31] = biological target: T30, ROCK1 (Homo sapiens, UniProt Q13464); test: Kinase HotSpot 40-kinase panel; format: biochemical; details: single-dose concentration of 1 μM
# T30 construct: purchased Reaction Biology Corp. (Kinase HotSpot)
# Procedure: as §1, §2
# [32] = biological target: T31, ALK (Homo sapiens, UniProt Q9UM73); test: Kinase HotSpot 40-kinase panel; format: biochemical; details: single-dose concentration of 1 μM
# T31 construct: purchased Reaction Biology Corp. (Kinase HotSpot)
# Procedure: as §1, §2
# [33] = biological target: T32, GSK3β (Homo sapiens, UniProt P49841); test: Kinase HotSpot 40-kinase panel; format: biochemical; details: single-dose concentration of 1 μM
# T32 construct: purchased Reaction Biology Corp. (Kinase HotSpot)
# T32 sequence (P49841 whole entry): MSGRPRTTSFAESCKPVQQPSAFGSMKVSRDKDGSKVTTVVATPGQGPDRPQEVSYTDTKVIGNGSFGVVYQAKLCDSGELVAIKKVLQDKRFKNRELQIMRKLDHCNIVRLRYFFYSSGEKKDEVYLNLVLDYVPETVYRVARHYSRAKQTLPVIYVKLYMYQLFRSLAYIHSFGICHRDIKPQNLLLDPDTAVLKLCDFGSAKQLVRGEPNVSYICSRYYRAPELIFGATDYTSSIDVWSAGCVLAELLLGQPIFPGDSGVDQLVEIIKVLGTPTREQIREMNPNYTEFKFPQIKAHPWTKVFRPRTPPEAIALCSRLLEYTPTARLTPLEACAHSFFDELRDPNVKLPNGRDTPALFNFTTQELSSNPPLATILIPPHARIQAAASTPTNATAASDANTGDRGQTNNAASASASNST
# Procedure: as §1, §2
# [34] = biological target: T33, CDK5/p25 (Homo sapiens, UniProt Q00535); test: Kinase HotSpot 40-kinase panel; format: biochemical; details: single-dose concentration of 1 μM
# T33 construct: purchased Reaction Biology Corp. (Kinase HotSpot)
# Procedure: as §1, §2
# [35] = biological target: T34, MLK1 (Homo sapiens, UniProt P80192); test: Kinase HotSpot 40-kinase panel; format: biochemical; details: single-dose concentration of 1 μM
# T34 construct: purchased Reaction Biology Corp. (Kinase HotSpot)
# Procedure: as §1, §2
# [36] = biological target: T35, RET (Homo sapiens, UniProt P07949); test: Kinase HotSpot 40-kinase panel; format: biochemical; details: single-dose concentration of 1 μM
# T35 construct: purchased Reaction Biology Corp. (Kinase HotSpot)
# Procedure: as §1, §2
# [37] = biological target: T36, IR (Homo sapiens, UniProt P06213); test: Kinase HotSpot 40-kinase panel; format: biochemical; details: single-dose concentration of 1 μM
# T36 construct: purchased Reaction Biology Corp. (Kinase HotSpot)
# Procedure: as §1, §2
# [38] = biological target: T37, mTOR (Homo sapiens, UniProt P42345); test: Kinase HotSpot 40-kinase panel; format: biochemical; details: single-dose concentration of 1 μM
# T37 construct: purchased Reaction Biology Corp. (Kinase HotSpot)
# Procedure: as §1, §2
# [39] = biological target: T38, DMPK (Homo sapiens, UniProt Q09013); test: Kinase HotSpot 40-kinase panel; format: biochemical; details: single-dose concentration of 1 μM
# T38 construct: purchased Reaction Biology Corp. (Kinase HotSpot)
# Procedure: as §1, §2
# [40] = biological target: T39, PIM1 (Homo sapiens, UniProt P11309); test: Kinase HotSpot 40-kinase panel; format: biochemical; details: single-dose concentration of 1 μM
# T39 construct: purchased Reaction Biology Corp. (Kinase HotSpot)
# T39 sequence (P11309 whole entry): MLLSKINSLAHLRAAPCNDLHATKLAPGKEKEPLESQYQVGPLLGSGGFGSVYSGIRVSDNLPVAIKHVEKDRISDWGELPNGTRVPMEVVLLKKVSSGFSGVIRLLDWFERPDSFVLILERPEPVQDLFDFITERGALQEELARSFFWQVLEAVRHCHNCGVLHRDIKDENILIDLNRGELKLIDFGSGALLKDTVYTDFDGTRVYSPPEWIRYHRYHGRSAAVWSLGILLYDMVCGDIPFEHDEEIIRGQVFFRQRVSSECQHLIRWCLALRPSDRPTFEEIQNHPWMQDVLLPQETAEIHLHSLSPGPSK
# Procedure: as §1, §2
smiles,measurement,setting,value
Nc1nccc2c1ccn2-c1cccc(NC(=O)c2ccc(N3CCOCC3)c(C(F)(F)F)c2)c1 [Compound 1r],pIC50,[1],5.24
same,% Inhibition,[2],1%
same,% Inhibition,[3],15%
same,% Inhibition,[4],−2%
same,% Inhibition,[5],−7%
same,% Inhibition,[6],7%
same,% Inhibition,[7],10%
same,% Inhibition,[8],−1%
same,% Inhibition,[9],−5%
same,% Inhibition,[10],−3%
same,% Inhibition,[11],−23%
same,% Inhibition,[12],−4%
same,% Inhibition,[13],6%
same,% Inhibition,[14],−5%
same,% Inhibition,[15],14%
same,% Inhibition,[16],−6%
same,% Inhibition,[17],−7%
same,% Inhibition,[18],42%
same,% Inhibition,[19],−8%
same,% Inhibition,[20],−4%
same,% Inhibition,[21],−10%
same,% Inhibition,[22],−1%
same,% Inhibition,[23],−9%
same,% Inhibition,[24],−7%
same,% Inhibition,[25],1%
same,% Inhibition,[26],4%
same,% Inhibition,[27],40%
same,% Inhibition,[28],4%
same,% Inhibition,[29],−4%
same,% Inhibition,[30],1%
same,% Inhibition,[31],2%
same,% Inhibition,[32],0%
same,% Inhibition,[33],−3%
same,% Inhibition,[34],−5%
same,% Inhibition,[35],−4%
same,% Inhibition,[36],27%
same,% Inhibition,[37],5%
same,% Inhibition,[38],−2%
same,% Inhibition,[39],−1%
same,% Inhibition,[40],−6%
